Test results published in patent publication US20210317111A1, “NOVEL MEDICAMENT FOR TREATING INFLAMMATORY BOWEL DISEASE” (OTSUKA PHARMACEUTICAL CO., LTD., priority 2018, published 2021).

Legend:
[1] = system: IFN-γ; test: IFN-γ production by stimulated PBMC (ELISA); assay type: cell-based; settings: stimulated human PBMC, 3 days, culture supernatant
Experimental: (§1) Peripheral blood (30 mL) derived from a healthy adult was layered on a lymphocyte tube Leucosep™ containing Lymphoprep (15 mL), and the tube was centrifuged at room temperature at 2000 rpm for 20 minutes. After the centrifugation, the upper 5 mL of the plasma was removed from the peripheral blood mononuclear cell (PBMC) layer with an aspirator, and the left solution containing the PBMC layer was collected into a new 50 mL tube. To the collected solution was added an equal amount of Hanks' balanced salt solution (HBSS) to dilute the cell suspension. The diluted solution was centrifuged at 4° C. at 1800 rpm for 5 minutes. After the centrifugation, the supernatant was discarded, the rest was suspended in 10 mL of AIM-V. The suspension was centrifuged at 4° C. at 1500 rpm for 5 minutes, and the supernatant was discarded. The same washing process was repeated one more time. After the centrifugation, the supernatant was discarded, and the obtained cell was suspended in 5% FBS-containing AIM-V to be used in the following tests.
(§2) To 96-well round-bottom plate were added 100 μL of medium containing the compound, 100 μL (0.5×10^5 beads) of anti-CD3/CD28/CD2-loaded bead suspension (Miltenyi), and 100 μL (1×10^5 cells) of PBMC suspension. The mixture was incubated at 37° C. in 5% CO2 for 3 days.

[2] = system: TNF-α; test: TNF-α production by stimulated PBMC (ELISA); assay type: cell-based; settings: stimulated human PBMC, 3 days, culture supernatant
Experimental: as §1, §2

With `Cc1c(-c2cnc(N)c(C#N)c2)c(F)cc2c(=O)c(C(=O)O)cn(C3CC3)c12` [the present compound, 7-(6-amino-5-cyanopyridin-3-yl)-1-cyclopropyl-6-fluoro-1,4-dihydro-8-methyl-4-oxo-3-quinoline-carboxylic acid] the “cytokine production (IFN-γ)” value [1] was “decreased” and the “cytokine production (TNF-α)” value [2] was “decreased”.
